Measurements from the OPERA property sets (Mansouri et al. 2018).

| logP | Compound |
| --- | --- |
| 2.93 | CCN(CC)C(=O)OCc1ccccc1 |
| 3.3 | CCN(CC)C(=O)OCCc1c[nH]c2ccccc12 |
| 3.6 | CCC(CC)COC(=O)N(CC)CC |
| 2.54 | CN(C)C(=O)OCCc1c[nH]c2ccccc12 |
| 2.82 | CCN(CC)C(=O)OCC(C)C |
| 3.2 | CCN(CC)C(=O)OCCc1ccccc1 |
| 2.36 | CCN(CC)C(=O)OCCCc1ccccn1 |
| 2.87 | CCC(CC)COC(=O)N(C)C |
| 2.4 | CN(C)C(=O)OCCc1ccccc1 |
| 1.44 | CN(C)C(=O)OCCCc1cccnc1 |
| 2.93 | CN(C)C(=O)OCCCc1ccccc1 |
| 2.6 | CC(Cc1ccccc1)OC(=O)N(C)C (stereo not drawn) |
| 1.38 | CC(C)OC(=O)N(C)C |

| Compound | logP |
| --- | --- |
| NC(=O)OCCc1ccccc1 | 1.5 |
| NC(=O)OCCCc1cccnc1 | 0.46 |
| NC(=O)OCCCc1ccccc1 | 1.96 |
| CNC(=O)OCc1ccccc1 | 1.68 |
| NC(=O)OCCc1c[nH]c2ccccc12 | 1.69 |
